Data as given in patent US7651979B2, “Coordination complexes, and methods for preparing by combinatorial methods, assaying and using the same” (priority 2000, dated 2010).

Tests used:
BlaM HeLa cells [1] = type: cell-based, human; details: for response of independently synthesized compounds on the BlaM HeLa assay: pure compounds made by non-combinatorial means; for ratio of green to blue fluorescence with increasing concentration: increasing concentrations, FIG. 7, twenty-eight hours
Excerpt: Another example of a subject assay is termed the CCF2/AM assay. The CCF2/AM dye is an effective assay for the presence of β-lactamase, and thus may be used as a sensor for its transcription. See, for example, U.S. Pat. No. 5,955,604 and WO 9630540. This screen in based on a cellular response that is relatively unique to cisplatin. […] See Sandman et al., Chem. Bio. 6:541-51 (1999). […] In addition, the rapid inhibition of transcription, which occurs prior to apoptosis, may be evaluated over a short period of time. In the BlaM HeLa cell line used herein, the inhibition of transcription coupled with the half-life of ambient β-lactamase results in a one-day screening protocol.
To screen drug candidates for transcription inhibition activity, genetically modified HeLa cells developed by Aurora Biosciences were exposed to the products from the above parallel reactions. BlaM HeLa cells have been permanently transfected with a vector encoding the 29-kD plasmid encoded TEM-1 β-lactamase from E. coli. This enzyme is the product of the ampicillin resistance gene Amp^r, and is not normally expressed in mammalian cells.
BlaM HeLa cells were grown up from stock provided by Aurora Biosciences using standard cell culture techniques. This cell line was grown in 10 cm plates by using a modified Dulbecco's Modified Eagle Medium supplemented with 10% fetal bovine serum, 2 mM L-glutamine, 1.0 mM sodium pyruvate, and 0.1 mM non-essential amino acids. Bacterial growth was inhibited through intermittent exposure to […], and selection of the BlaM cells was maintained through the weekly administration of 800 μg/mL G418 (geneticin).
For plate reader-based experiments, HeLa cells were distributed into black, clear-bottom, 96-well plates (Corning). Nearly confluent 10 cm plates (60-70%) were trypsinized and distributed (100 μL) into the 96-well plates, and allowed to adhere and grow for approximately 18 h. Cells were then washed with 100 μL PBS and provided with fresh media prior to treatment. After treatment, the cells were exposed to the CCF2/AM dye for one hour, and measured for fluorescence on the fmax plate reader. The cellular response to platinum compounds was determined by taking the ratio of the absolute value of measured fluorescence at 530 nm (green) over the absolute value of measured fluorescence at 460 nm (blue). This response is corrected for the background of the microplate.
Concentration and time-dependent studies were conducted with cisplatin and other pure platinum compounds to determine the response of the cells to platinum chemotherapeutics. For the library screen, cells were exposed to 30 μM of platinum product from the reactions for 28 hours. 72 reactions were screened manually per day, with each compound measured in triplicate. […] After the exposure period the cells were worked up using the CCF2/AM dye protocol, and hits were determined by their response related to that of a cisplatin standard at the same concentration. Initial hits were then rescreened for dose dependent toxicity, over a range from 0 to 75 μM concentrations.

BlaM HeLa cells [2] = experiment: Northern blotting of RNA from BlaM HeLa cells; type: cell-based, human; details: 30 μM, 12 hours, FIG. 5
Description: Two 10 cm plates of BlaM HeLa cells were grown to 60-70% confluence, and one treated with 30 μM cisplatin for twelve hours. After this treatment, RNA was extracted from the cells on each plate using an Ambion kit and quantified by UV-visible spectroscopy. The RNA was electrophoresed on an agarose-formaldehyde gel, transferred to a nylon membrane, and crosslinked with a Stratalinker UV device by using standard procedures. This blot was probed with ^32P labeled BlaM fragment from pcDNA-3 (Aurora Biosciences) and 7S RNA from pUC(Amp), and quantified by a Biorad phosphorimager apparatus.

## [NH2][Pt]([Cl])([Cl])[NH]C1CCC1 [ammine-cyclobutylamine complex, cis-ammine(cyclobutylamine)PtCl2]
BlaM HeLa cells [1]
  response of independently synthesized compounds on the BlaM HeLa assay: positive response

## [Cl][Pt]([Cl])([NH]C1CCC1)[NH]C1CCC1 [bis-cyclobutylamine species, cis-(cyclobutylamine)2PtCl2]
BlaM HeLa cells [1]
  response of independently synthesized compounds on the BlaM HeLa assay: positive response

## CC(C)N.CC(C)N.[Cl-].[Cl-].[Pt+2] [cis-(isopropylamine)2PtCl2]
BlaM HeLa cells [1]
  response of independently synthesized compounds on the BlaM HeLa assay: positive response

## Cc1cccnc1N.N.[Cl][Pt][Cl] [cis-ammine(2-amino-3-picoline)dichloroplatinum(II)]
BlaM HeLa cells [1]
  response of independently synthesized compounds on the BlaM HeLa assay: positive response

## N.N.[Cl][Pt][Cl] [cisplatin, cis-diamminedichloroplatinum(II)]
BlaM HeLa cells [1]; 30 μM, 28 hours, triplicate, response above 0.092 considered a hit
  response (ratio of fluorescence at 530 nm (green) over 460 nm (blue)) in initial screen: 0.092
BlaM HeLa cells [1]
  ratio of green to blue fluorescence with increasing concentration: definite increase
BlaM HeLa cells [1]; time dependence, FIG. 8
  time at which cell response peaked: approximately 20 hours
BlaM HeLa cells [2]
  transcription of both the BlaM vector and control 7S RNA: decrease in transcription

## O=[N+]([O-])[O-].[Ag+] [silver nitrate]
BlaM HeLa cells [1]; in media, same concentration as cisplatin (~30 μM), FIG. 9
  transcription inhibition response: does not give a transcription inhibition response

## N.N.[Cl][Pt][Cl] [trans-DDP, trans-diamminedichloroplatinum(II)]
BlaM HeLa cells [1]
  ratio of green to blue fluorescence with increasing concentration: no increase
BlaM HeLa cells [1]; time dependence, any of the times measured, FIG. 8
  cell response over time: no cell response
